From patent publication US20230087994A1, “TARGETED BIFUNCTIONAL DEGRADERS” (YALE UNIVERSITY, priority 2019, published 2023)
Each block holds one molecule with its values, some of them ahead of it.

Columns and labels:
PC3 cells = test: Human prostate cancer PC3 tumor growth in mice; type: in vivo; conditions: control and comparator arms; FIG. 138
Protocol: The ability of MIF-GN3 to mediate the depletion of MIF in a therapeutically relevant disease model was investigated. […] An experiment was conducted to determine whether the bifunctional molecule MIF-GN3 can deplete sufficient human MIF from serum to slow PC3 tumor growth. Mice were injected with an aliquot of PC3 cells, and the size of the resultant tumors as well as the levels of human MIF in serum were monitored over five weeks. […] Five weeks after the initial PC3 cell injection, the first of the mice reached maximal tumor size ([…]) and was sacrificed (FIG. 138). […] The decrease in human MIF levels mediated by MIF-GN3 is consistent with a mechanism of action in which MIF-GN3 mediates the depletion and degradation of circulating MIF protein. While the α-MIF antibody would not necessarily be expected to decrease the levels of human MIF, it is possible that the antibody mediates MIF neutralization in a manner which masks its signal as determined by ELISA. Alternatively, the α-MIF antibody may mediate depletion or degradation of huMIF by some endocytic mechanism. Another possible explanation is that the α-MIF antibody decrease serum levels of active human MIF to such an extent at early time points that PC3 cells proliferate much more slowly, and therefore fewer cells are actively secreting human MIF.
Mice were sacrificed when their tumor volumes reached 1000 mm^3. […] At this same time point, less than 25% of the mice in any other arm had survived.

human MIF [1] = biological target: T1, human MIF (Homo sapiens, UniProt P14174); test: Depletion of injected recombinant human MIF from serum in mice; type: in vivo; set-up: injected into mice; conditions: control molecules; FIG. 136
T1 sequence (P14174 2-115 limits assumed): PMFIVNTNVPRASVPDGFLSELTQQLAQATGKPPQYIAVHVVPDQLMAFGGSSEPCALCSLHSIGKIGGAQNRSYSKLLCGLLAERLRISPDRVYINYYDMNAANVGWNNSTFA
Protocol: In vivo human MIF depletion experiments were undertaken to determine whether MIF-GN3 can mediate the depletion of injected recombinant human MIF from serum in mice. Mice were injected with five μg of the human MIF protein. In this experiment, one group of mice was also injected with a single 10 mpk dose of MIF-GN3 along with human MIF protein. It was observed that after four hours, the average level of human MIF in serum in the PBS-treated mice was 1.76 ng/mL (FIG. 134). In mice treated with 10 mpk MIF-GN3, however, the concentration of human MIF in serum was 0.68 ng/mL. One day after the initial injection, human MIF levels had reached background levels for both conditions. […] It was hypothesized that, due to the short half-life of human MIF in serum, investigating human MIF levels at earlier time points may be more informative.
Next, an experiment was performed to determine whether MIF-GN3 could enhance MIF clearance at time points earlier than four hours. Mice were coinjected with recombinant human MIF and 10 mpk MIF-GN3 via either i.p. or i.v. routes. For the PBS control arms, human MIF was injected with PBS. It was observed that in the absence of MIF-GN3, there was a spike in huMIF levels in circulation after 30 minutes (FIG. 135). In the presence of MIF-GN3, however, levels of MIF protein remained low at 30 minutes and no spike in its concentration was observed. By two hours, the levels of human MIF in circulation decreased to background levels. […] In a further experiment, whether an inhibitor of the MIF protein (3w) is able to mediate the protein's depletion from serum was determined. A bifunctional molecule that mediates the depletion of α-DNP antibody from serum was also assayed as a negative control. Neither of these molecules was expected to mediate the formation of a ternary complex between human MIF protein and ASGPR.
In order to confirm that mice injected with one or ten mpk MIF-GN3 had received the injection, and that the observed stability of MIF concentrations in MIF-GN3 treated mice was not the result of injection error, 200 μg of α-DNP antibody was coinjected with the MIF protein in this experiment. […] An investigation of the ability of MIF-GN3 to mediate the depletion of endogenous mouse MIF in vivo was next undertaken. Mice were treated with either PBS or 10 mpk of MIF-GN3. […] One possible explanation for this finding is that MIF protein may be synthesized rapidly, and any increase in degradation mediated by MIF-GN3 may not be of a large enough magnitude to impact the protein's level in serum.

human MIF [2] = biological target: T1, human MIF; test: Depletion of human MIF from cell culture supernatant (sandwich ELISA); type: cell-based; set-up: host or cells: exogenous protein added to cell culture; conditions: 24 hours; FIG. 128B
Protocol: The ability of bifunctional MIF-binding molecules to mediate the depletion of human MIF from cell culture was investigated. In these assays, human MIF was present at a concentration of 100 nM, and a sandwich ELISA assay was utilized to measure the concentration of human MIF remaining in the cell culture supernatant. The closely related bifunctional molecules MIF-GN3, MIF-PEG2-GN3, and MIF-PEG4-GN3 were used, as well as the structurally dissimilar molecule MIF-NVS-PEG3-GN3. […] Based on the ease of its synthesis and its efficacy in this experiment, MIF-GN3 was utilized for further studies. It was next investigated whether the MIF inhibitor 3w mediates MIF depletion from cell culture supernatant. […] When cells were treated with 3w, no depletion of exogenous MIF protein was observed after 24 hours (FIG. 128B).

[3] = biological target: T2, ASGPR on the surface of immortalized human hepatocyte HepG2 cells (Homo sapiens, UniProt P07306+P07307); test: DNP-GN3-mediated ternary complex formation: association of fluorescently labeled α-DNP antibody with HepG2 cells in suspension; type: cell-based
T2 sequence (P07306 1-291): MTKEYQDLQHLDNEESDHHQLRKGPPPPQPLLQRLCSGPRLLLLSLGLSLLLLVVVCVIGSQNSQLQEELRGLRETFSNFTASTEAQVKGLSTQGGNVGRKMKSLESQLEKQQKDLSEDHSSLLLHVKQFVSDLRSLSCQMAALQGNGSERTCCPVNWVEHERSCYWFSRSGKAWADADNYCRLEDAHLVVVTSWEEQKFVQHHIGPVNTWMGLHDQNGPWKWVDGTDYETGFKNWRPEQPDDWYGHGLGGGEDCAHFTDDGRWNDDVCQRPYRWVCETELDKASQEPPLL
T2 sequence (P07307 1-311): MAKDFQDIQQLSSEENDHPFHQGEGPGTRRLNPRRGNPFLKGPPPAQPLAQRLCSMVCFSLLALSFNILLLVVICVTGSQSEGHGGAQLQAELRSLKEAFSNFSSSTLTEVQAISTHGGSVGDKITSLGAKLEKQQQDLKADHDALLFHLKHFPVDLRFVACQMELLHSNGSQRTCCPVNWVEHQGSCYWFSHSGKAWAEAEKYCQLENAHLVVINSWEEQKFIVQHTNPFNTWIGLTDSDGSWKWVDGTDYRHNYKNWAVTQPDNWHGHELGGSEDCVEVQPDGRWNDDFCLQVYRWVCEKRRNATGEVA
Excerpt: It was investigated whether DNP-GN3 could mediate the formation of a ternary complex between a fluorescently labeled α-DNP antibody and ASGPR on the surface of immortalized human hepatocyte HepG2 cells in suspension. […] The observed bell-shaped response to DNP-GN3 concentration is consistent with the prozone effect commonly observed in systems wherein a ternary complex is formed.

HepG2 cells [4] = test: DNP-AF3-mediated endocytosis of fluorescently labeled α-DNP antibody by HepG2 cells (flow cytometry); type: cell-based, human; conditions: 40 nM DNP-AF3, 100 nM antibody; for effect of endocytic pathway inhibitors on fluorescence of the cell population: FIG. 106
Protocol: The intracellular fluorescence of cells that were incubated at 37° C. with both fluorescently labeled α-DNP antibody and DNP-AF3 for a given amount of time was examined. Cells were then washed, removed from the plate with trypsin, and subjected to flow cytometry. Trypsin treatment is expected to cleave ASGPR and surface-bound α-DNP antibody from cells, and therefore the cellular fluorescence observed in these assays is expected to arise only from internalized antibodies.
It was then determined if reagents which inhibit ternary complex formation inhibit endocytosis mediated by DNP-AF3. In order to account for non-specific antibody association with cells, the mean fluorescence intensity of an aliquot of cells which had been treated with α-DNP antibody but not DNP-AF3 was subtracted from each reading. […] In the presence of 2.38 μM (0.1 mg/mL) ASOR, the cell population fluorescence was decreased to 4.66e5 (FIG. 105); at this ASOR concentration, ternary complex formation is decreased by approximately 70%. Because ternary complex is not inhibited completely at this concentration of ASOR, it is expected that productive endocytic events are still taking place.

HepG2 cells [5] = test: DNP-GN3-mediated endocytosis of fluorescently labeled α-DNP antibody by adherent HepG2 cells; type: cell-based, human; conditions: competitive binders at high concentrations; FIG. 88
HepG2 cells [6] = test: as above; type: cell-based, human; conditions: DNP-GN3-mediated uptake; FIG. 89
Protocol: It was next explored whether DNP-GN3 mediates the endocytosis of fluorescently labeled α-DNP antibody.
To explore the cellular mechanism of antibody uptake, cells were treated with chemical inhibitors of several endocytic pathways (FIG. 89).

HepG2 cells [7] = test: MIF-GN3-mediated endocytosis of fluorescently labeled human MIF by HepG2 cells; conditions: 100 nM MIF, 200 nM MIF-GN3; FIG. 132
Protocol: Human MIF protein was fluorescently labeled with Alexa 488 NHS ester, then incubated with HepG2 cells in the presence of varying levels of MIF-GN3.
Next, inhibitors of various endocytic pathways were utilized to determine if MIF-GN3 mediates MIF endocytosis in a manner consistent with ASGPR (FIG. 132).

[8] = biological target: human IgG (fluorescently labeled) (human); test: cell-based or functional assay
[9] = biological target: T3, asialoglycoprotein receptor (ASGPR) on the surface of immortalized human hepatocyte HepG2 cells (human) (UniProt P07306); test: cell-based or functional assay
T3 sequence (looked up) 1: T2 sequence (P07306 1-291)
T3 sequence (looked up) 2: T2 sequence (P07307 1-311)

[10] = biological target: T3, asialoglycoprotein receptor (ASGPR) on the surface of immortalized human hepatocyte HepG2 cells (human); test: competition, flow cytometry on HepG2 cells against 40 nM DNP-AF3 and 100 nM α-DNP antibody
[11] = biological target: T3, asialoglycoprotein receptor (ASGPR) on the surface of immortalized human hepatocyte HepG2 cells (human); test: competition, flow cytometry: inhibition of DNP-GN3-mediated association of fluorescent α-DNP antibody with HepG2 cells in suspension (ASGPR on cells)

human MIF concentration in serum compared to the PBS control (human MIF [1]): no significant decreases | depletion of exogenous MIF protein from supernatant (human MIF [2]): no depletion
Molecule: Oc1ccc(-n2cc(-c3ccc4cc(OCCOCCN5CCOCC5)ccc4n3)nn2)cc1F [Compound 3w, reference compound]
PC3 tumor growth (PC3 cells): not found to decrease tumor growth

Molecule: CC(=O)N[C@H]1C(O)O[C@H](CO)[C@H](O)[C@@H]1O (some centres unmarked) [GalNAc, N-acetylgalactosamine]
IC50 [3]: 200000 nM | effect on DNP-AF3-mediated α-DNP antibody endocytosis (HepG2 cells [4]; ASF 2.07 μM, AF and GalNAc 1.25 mM, FIG. 105): significantly decreased cellular fluorescence | effect on DNP-GN3-mediated α-DNP antibody endocytosis (HepG2 cells [5]): significantly decreased

Molecule: N=C(N)NC(=O)c1nc(Cl)c(N)nc1N [amiloride, Amiloride]
effect of endocytic pathway inhibitors on intracellular fluorescence (HepG2 cells [6]): did not significantly decrease | effect of endocytic pathway inhibitors on fluorescence of the cell population (HepG2 cells [4]): A decrease in cellular fluorescence | effect of endocytic pathway inhibitors on MIF-GN3-mediated MIF endocytosis (HepG2 cells [7]): did not impact cellular fluorescence significantly

Molecule: COc1ccc2c(c1)c(CC(=O)O)c(C)n2C(=O)c1ccc(Cl)cc1 [indomethacin, Indomethacin]
effect of endocytic pathway inhibitors on fluorescence of the cell population (HepG2 cells [4]): did not significantly decrease | effect of endocytic pathway inhibitors on MIF-GN3-mediated MIF endocytosis (HepG2 cells [7]): did not decrease

Molecule: C[C@@H]1[C@H](O)[C@@H](C)/C=C/C=C/CC/C=C/C=C/C=C/C=C/C(O[C@H]2O[C@H](C)[C@@H](O)[C@H](N)[C@@H]2O)CC2O[C@](O)(CC(O)C(O)CCC(O)CC(O)CC(O)CC(=O)O[C@H]1C)CC(O)C2C(=O)O (some centres unmarked) [nystatin, Nystatin]
effect of endocytic pathway inhibitors on intracellular fluorescence (HepG2 cells [6]): did not significantly decrease | effect of endocytic pathway inhibitors on fluorescence of the cell population (HepG2 cells [4]): did not significantly decrease | effect of endocytic pathway inhibitors on MIF-GN3-mediated MIF endocytosis (HepG2 cells [7]): did not decrease

endocytosis of human IgG by HepG2 cells over time and concentration: most effective FcIII-BCN-GN3 concentration [8]: 1 µM
Molecule: FcIII-BCN-GN3 (peptide)

endocytosis of Alexa 488-labeled human IgG by HepG2 cells (flow cytometry, six hours): FcIII-GN3 concentration giving maximal uptake [8]: 200 nM
Molecule: FcIII-GN3 (oxidized cyclized form) (peptide)

Molecule: asialoorosomucoid (ligand)
mean fluorescence of the HepG2 cell population (DNP-AF3-mediated α-DNP antibody endocytosis) in the presence of 2.38 µM (0.1 mg/mL) ASOR; approximately 1.31e6 without inhibitor (mean fluorescence) [9]: 466000 | percent decrease of ternary complex formation at 2.38 µM (0.1 mg/mL) ASOR [10]: 70% | IC50 [11]: 17 nM

B1: asialofetuin (ligand, UniProt P12763 19-359, looked up, species assumed)
Alpha-2-HS-glycoprotein: IPLDPVAGYKEPACDDPDTEQAALAAVDYINKHLPRGYKHTLNQIDSVKVWPRRPTGEVYDIEIDTLETTCHVLDPTPLANCSVRQQTQHAVEGDCDIHVLKQDGQFSVLFTKCDSSPDSAEDVRKLCPDCPLLAPLNDSRVVHAVEVALATFNAESNGSYLQLVEISRAQFVPLPVSVSVEFAVAATDCIAKEVVDPTKCNLLAEKQYGFCKGSVIQKALGGEDVRVTCTLFQTQPVIPQPQPDGAEAEAPSAVPDAAGPTPSAAGPPVASVVVGPSVVAVPLPLHRAHYDLRHTFSGVASVESSSGEAFHVGKTPIVGQPSIPGGPVRLCPGRIRYFKI
modifications: desialylated
IC50 [11]: 65 nM
